Series [1] is described as follows: PAMPA (parallel artificial membrane permeability assay). Type of series: in vitro ADME. Particulars: PAMPA, pH 6.5; 0.2 μM test compound, 37 °C, 4 h. How it is done:
In order to determine the passive membrane diffusion rates, the Corning Gentest Pre-coated PAMPA Plate System was used in the PAMPA test. […] The acceptor plate was then placed on top of the donor plate and incubated at 37 °C without agitation for 4 h. At the end of the incubation, the plates were separated and the solutions from each well of both the acceptor plate and the donor plate were transferred to 96-well plates and mixed with acetonitrile. The final concentrations of compound in both the donor wells and acceptor wells, as well as the concentrations of the initial donor solutions, were analyzed by LC-MS/MS. The permeability of the compound was calculated according to the previous report.

Series [2] can be described thus: Hepatic microsomal stability assay, human. Type of series: in vitro ADME. How it is done: (§1) The disappearance of the parent compound over time was measured by using the amount of drug at time zero as a reference. After 5 min of preincubation, 1 mM NADPH (final concentration, the same applies to the following) was added to a mixture containing 1 μM of the test compound, 0.2 mg/mL of rat or human liver microsomes (Sekisui XenoTech, LLC, Kansas City, KS), 1 mM EDTA, and 100 mM phosphate buffer (pH 7.4) and then incubated at 37 °C for 30 min by rotation at 60 rpm. An aliquot of 50 μL of the incubation mixture was sampled and added to 250 μL of chilled acetonitrile/internal standard (IS). After the centrifugation for 15 min at 3150× g at 4 °C, the supernatants were analyzed by LC-MS/MS. Hepatic microsomal stability (mL/min/kg, CLint) was calculated according to the previous report and 44.8 or 48.8 mg microsomal protein/g liver and 40.0 or 25.7 g liver/kg body weight were used as scaling factors for the rat or human, respectively.

Series [3] in a line: Hepatic microsomal stability assay, rat. Type of series: in vitro ADME. How it is done: as §1
The nature of series [4]: Unbound fraction by equilibrium dialysis, rat plasma. The series is classed as in vitro ADME. Particulars: 1 μM, equilibrium dialysis 37 °C 4 h. How it is done:
An equilibrium dialysis apparatus, Rapid Equilibrium Dialysis (RED) Device Single-Use Plate with Inserts, 8K MWCO (ThermoFisher Scientific, Waltham, MA, USA), was used to determine the unbound fraction for each compound in human plasma, rat plasma, and medium containing 10% fetal bovine serum (FBS). Plasma or medium was mixed with the test compound (1 μM) and 200 μL aliquots were loaded into the apparatus and dialyzed versus 350 μL of 100 mM phosphate buffer (pH 7.4) at 37 °C for 4 h by rotation at 1000 rpm. The unbound fraction was calculated as the ratio of receiver side (buffer) to donor side (plasma) concentrations.
On the technique in general: Equilibrium dialysis compares concentrations on both sides of a semipermeable membrane.

The nature of series [5]: Reactive oxygen species (ROS) assay under simulated sunlight. The series is classed as physicochemical. The method, then:
The ROS assay was designed to detect both singlet oxygen and superoxide generated from photo-irradiated chemicals. Briefly, singlet oxygen was measured in aqueous solution by spectrophotometrically monitoring the bleaching of p-nitrosodimethylaniline at 440 nm using imidazole as a selective acceptor of singlet oxygen. Samples containing the tested chemical (20 or 200 μM), p-nitrosodimethylaniline (50 μM), and imidazole (50 μM) in 20 mM sodium phosphate buffer (pH 7.4) were mixed in a tube. Each sample in 200 μL was transferred into a well of a plastic 96-well plate (clear, untreated, and flat-bottomed) and checked for precipitation under a microscope with an objective lens (×100) before light exposure. The plate was subjected to a measurement of absorbance at 440 nm using a microplate spectrophotometer. The plate was fixed in the quartz reaction container with a quartz cover and then irradiated with the simulated sunlight (ultraviolet A/B and visible light, 250 W/m^2, Suntest CPS plus, Atlas Material Testing Technology, Mount Prospect, IL, USA) for 1 h. After agitation on a plate shaker, the UV absorbance at 440 nm was measured. For the determination of superoxide, samples containing the test chemical (20 or 200 μM) and nitroblue tetrazolium (50 μM) in 20 mM sodium phosphate buffer were irradiated with the simulated sunlight for 1 h and the reduction in nitroblue tetrazolium was measured by the increase in absorbance at 560 nm in the same manner as the singlet oxygen determination. Experiments were performed in triplicate wells in three independent runs. As the final concentration, 200 μM test chemical solutions should be subjected to the ROS assay. However, when precipitation could be observed at 200 μM under the optical microscope, additional experiments should be performed under appropriate dilution (20, 50, or 100 μM).

Series [6] is described as follows: Eye irritation test. As to conditions: in vivo.
For series [7], the system named is chick retinal cells including neurons and glial cells. Also noted: method as in PMID 18414992. As to conditions: cited from earlier work; for The Percentage of Dead Cells in Total Cells: 2 days, per well.
[8] abbreviates: 1 μM, 0.2 mg/mL microsomes, 1 mM NADPH, 30 min.
The mark [9] stands for this setting: 20 µM, simulated sunlight 1 h, mean ± standard deviation (n = 3).

The structures appear in SMILES notation. Where “and” joins values, the source holds several entries; their conditions need not be identical. Equal entries are not always repeated. Where two headings read alike, the source gives them in different places.

As a reminder, the Papp is the rate of passage across a membrane or cell layer, normalised by area and donor concentration. In series [1], `CCCCN(CCCC)c1ccc(C=Cc2sc3ccccc3[n+]2CC(=O)O)cc1.[Br-]` [NK-5962, 2-[2-[4-(dibutylamino)phenyl]ethenyl]-3-carboxymethylbenzothiazolium bromide] came in with a Papp at 4 h, 0.2 μM of 0.31 ×10⁻⁶ cm/s. Moreover, in series [2] (setting [8]), the “Microsome Metabolic Stability Human” value was 54.5 µL/min/mg. In addition, the “metabolic stability (in words)” value in series [2] (human liver microsomes) and in series [3] (rat liver microsomes) was “moderate metabolic stability” throughout. Besides, the “stability in the absence of the coenzyme NADPH” value in series [2] (human liver microsomes, without NADPH) is given as “stable”; in series [3] (rat liver microsomes, without NADPH), “stable”. Moreover, the CLint scaled at 1 μM in series [2] (human, liver microsomes, pH 7.4, 1 μM, 0.2 mg/mL microsomes, 1 mM NADPH, 30 min, read-out: Microsome Metabolic Stability Human (CLint)) came to 68.3 mL/min/kg; in series [3] (rat, liver microsomes, pH 7.4, 1 μM, 0.2 mg/mL microsomes, 1 mM NADPH, 30 min, read-out: Microsome Metabolic Stability Rat (CLint)), 272 mL/min/kg. Also, the “Microsome Metabolic Stability Rat” value in series [3] (setting [8]) is on record as 151.9 µL/min/mg. The “Protein-Binding (Non-Binding Ratio) Rat Plasma” value in series [4] is 0.022. Further, the “Reactive Oxygen Species Generation Singlet oxygen” value in series [5] (setting [9]) is on record as 93 ± 14 ΔA440 × 1000. In series [5] (setting [9]), the “Reactive Oxygen Species Generation Superoxide” value is on record as “Not detected”. Also, in series [5] (low level of reactive oxygen species generation), the “phototoxicity conclusion from ROS assay” value is listed as “less phototoxic”. The “toxicity in the eye irritation test” value in series [6] is given as “not toxic”. The “percentage of dead cells, dependence on concentration” value in series [7] (2 days culture, dark or light condition, P = 0.0183 two-factor ANOVA) is listed as “significantly smaller at higher concentrations”. Also, the “The Percentage of Dead Cells in Total Cells” value in series [7] (NK-5962 1.6 × 10^−5 M, light exposure yes (230 lux 9 h daily)) was 1.3% and 0% and 0.5% and 0.3% and 1.9% and 3.2% and 3.0%; in series [7] (NK-5962 1.6 × 10^−6 M, light exposure no) it was 2.5% and 0.4% and 1.3% and 2.4% and 0.8% and 1.7% and 1.9% and 1.4%; in series [7] (NK-5962 1.6 × 10^−7 M, light exposure no) it was 5.1% and 2.0% and 0.3% and 1.2% and 0% and 2.3% and 2.2% and 1.3%.

(Values after article PMC8235661, “Photoelectric Dye, NK-5962, as a Potential Drug for Preventing Retinal Neurons from Apoptosis: Pharmacokinetic Studies Based on Review of the Evidence” (Life, 2021).)
